From ChEMBL document CHEMBL3044672, “N9- and N7-(Chloromethyl Phenymethyl)Chloropurine Derivatives from , '-Dichloroxylenes: Synthesis and Anticancer Activity” (2005)

Columns and labels:
Format in all cases: functional
[1] = tested on: OVCAR-3; assay: Cytotoxicity against Homo sapiens (human) OVCAR3 cells after 48 hr by sulforhodamine B assay; details: OVCAR-3, 48 h
[2] = tested on: HT-29; assay: Cytotoxicity against Homo sapiens (human) HT-29 cells after 48 hr by sulforhodamine B assay; details: HT-29, 48 h
[3] = tested on: SK-MEL-5; assay: Cytotoxicity against Homo sapiens (human) SK-MEL-5 cells after 48 hr by sulforhodamine B assay; details: SK-MEL-5, 48 h
[4] = tested on: MCF7; assay: Cytotoxicity against Homo sapiens (human) MCF7 cells after 48 hr by sulforhodamine B assay; details: MCF7, 48 h
[5] = tested on: NCI-H322M; assay: Cytotoxicity against Homo sapiens (human) NCI-H322M cells after 48 hr by sulforhodamine B assay
[6] = tested on: CCRF-CEM; assay: Cytotoxicity against Homo sapiens (human) CCRF-CEM cells after 48 hr by sulforhodamine B assay
[7] = tested on: BT-549; assay: Cytotoxicity against Homo sapiens (human) BT549 cells after 48 hr by sulforhodamine B assay; details: BT-549, 48 h
[8] = tested on: HOP-62; assay: Cytotoxicity against Homo sapiens (human) HOP62 cells after 48 hr by sulforhodamine B assay; details: HOP-62, 48 h
[9] = tested on: UO-31; assay: Cytotoxicity against Homo sapiens (human) UO31 cells after 48 hr by sulforhodamine B assay; details: UO-31, 48 h
[10] = tested on: SF-268; assay: Cytotoxicity against Homo sapiens (human) SF268 cells after 48 hr by sulforhodamine B assay; details: SF-268, 48 h
[11] = tested on: IGROV-1; assay: Cytotoxicity against Homo sapiens (human) IGROV1 cells after 48 hr by sulforhodamine B assay; details: IGROV-1, 48 h
[12] = tested on: SK-MEL-28; assay: Cytotoxicity against Homo sapiens (human) SK-MEL-28 cells after 48 hr by sulforhodamine B assay; details: SK-MEL-28, 48 h
[13] = tested on: NCI-H460; assay: Cytotoxicity against Homo sapiens (human) NCI-H460 cells after 48 hr by sulforhodamine B assay; details: NCI-H460, 48 h
[14] = Cytotoxicity against Homo sapiens (human) NCI-ADR-RES cells after 48 hr by sulforhodamine B assay
[15] = tested on: RXF 393; assay: Cytotoxicity against Homo sapiens (human) RXF393 cells after 48 hr by sulforhodamine B assay; details: RXF 393, 48 h
[16] = tested on: MOLT-4; assay: Cytotoxicity against Homo sapiens (human) MOLT4 cells after 48 hr by sulforhodamine B assay; details: MOLT-4, 48 h
[17] = tested on: SK-MEL-2; assay: Cytotoxicity against Homo sapiens (human) SK-MEL-2 cells after 48 hr by sulforhodamine B assay; details: SK-MEL-2, 48 h
[18] = tested on: HCC 2998; assay: Cytotoxicity against Homo sapiens (human) HCC2998 cells after 48 hr by sulforhodamine B assay; details: HCC 2998, 48 h
[19] = tested on: CAKI-1; assay: Cytotoxicity against Homo sapiens (human) Caki1 cells after 48 hr by sulforhodamine B assay; details: CAKI-1, 48 h
[20] = tested on: T47D; assay: Cytotoxicity against Homo sapiens (human) T47D cells after 48 hr by sulforhodamine B assay
[21] = tested on: M14; assay: Cytotoxicity against Homo sapiens (human) M14 cells after 48 hr by sulforhodamine B assay; details: M14, 48 h
[22] = tested on: U-251; assay: Cytotoxicity against Homo sapiens (human) U251 cells after 48 hr by sulforhodamine B assay; details: U-251, 48 h
[23] = tested on: MCF7; assay: Cytotoxicity against Homo sapiens (human) MCF7 cells assessed as cell growth at 10^-4 M after 48 hr by Alamar blue assay; details: MCF7, 48 h, read-out: Activity
[24] = tested on: SF-295; assay: Cytotoxicity against Homo sapiens (human) SF295 cells after 48 hr by sulforhodamine B assay; details: SF-295, 48 h
[25] = tested on: OVCAR-5; assay: Cytotoxicity against Homo sapiens (human) OVCAR5 cells after 48 hr by sulforhodamine B assay; details: OVCAR-5, 48 h
[26] = tested on: OVCAR-8; assay: Cytotoxicity against Homo sapiens (human) OVCAR8 cells after 48 hr by sulforhodamine B assay; details: OVCAR-8, 48 h
[27] = tested on: DU-145; assay: Cytotoxicity against Homo sapiens (human) DU145 cells after 48 hr by sulforhodamine B assay; details: DU-145, 48 h
[28] = tested on: NCI-H23; assay: Cytotoxicity against Homo sapiens (human) NCI-H23 cells after 48 hr by sulforhodamine B assay; details: NCI-H23, 48 h
[29] = tested on: EKVX; assay: Cytotoxicity against Homo sapiens (human) EKVX cells after 48 hr by sulforhodamine B assay
[30] = tested on: LOX IMVI; assay: Cytotoxicity against Homo sapiens (human) LOXIMVI cells after 48 hr by sulforhodamine B assay
[31] = tested on: PC-3; assay: Cytotoxicity against Homo sapiens (human) PC3 cells after 48 hr by sulforhodamine B assay; details: PC-3, 48 h
[32] = read-out: LC50 (the source's name)

## ClCc1cccc(Cn2cnc3c(Cl)nc(Cl)nc32)c1
[1]
  GI50: 1.58 µM
  LC50: 6.45 µM
  TGI: 3.23 µM
[2]
  GI50: 2.39 µM
  TGI: > 100 µM
[2]; [32]
  CC50: > 100 µM
[3]
  GI50: 1.58 µM
  LC50: 5.88 µM
  TGI: 3.02 µM
[4]
  GI50: 2.04 µM
  LC50 (concentration killing 50% of cells): > 100 µM
  TGI: 6.45 µM
[5]
  GI50: 2.29 µM
  TGI: 5.12 µM
[5]; [32]
  CC50: 15.8 µM
[6]
  GI50: 2.69 µM
  TGI: > 100 µM
[6]; [32]
  CC50: > 100 µM
[7]
  GI50: 1.69 µM
  LC50 (50% lethal concentration): 6.16 µM
  TGI: 3.23 µM
[8]
  GI50: 2.29 µM
  TGI: 4.36 µM
[8]; [32]
  CC50: 8.31 µM
[9]
  GI50: 1.58 µM
  LC50 (concentration causing 50% net cell kill): 5.88 µM
  TGI: 3.09 µM
[10]
  GI50: 2.51 µM
  TGI: 6.6 µM
[10]; [32]
  CC50: 70.8 µM
[11]
  GI50: 2.29 µM
  LC50: 19.9 µM
  TGI: 5.12 µM
[12]
  GI50: 2.34 µM
  LC50 (concentration killing 50% of cells): > 100 µM
  TGI: 5.37 µM
[13]
  GI50: 2.34 µM
  TGI: 6.31 µM
[13]; [32]
  CC50: > 100 µM
[14]
  GI50: 2.39 µM
  LC50 (concentration killing 50% of cells): > 100 µM
  TGI: 5.24 µM
[15]
  GI50: 0.75 µM
  TGI: 2.09 µM
[15]; [32]
  CC50: 5.12 µM
[16]
  GI50: 3.38 µM
  TGI: > 100 µM
[16]; [32]
  CC50: > 100 µM
[17]
  GI50: 1.99 µM
  LC50 (concentration killing 50% of cells): 10 µM
  TGI: 4.46 µM
[18]
  GI50: 1.62 µM
  TGI: 3.16 µM
[18]; [32]
  CC50: 6.16 µM
[19]
  GI50: 2.23 µM
  TGI: 5.88 µM
[19]; [32]
  CC50: 22.9 µM
[20]
  GI50: 1.95 µM
  LC50: > 100 µM
  TGI: 4.46 µM
[21]
  GI50: 1.77 µM
  LC50: 6.45 µM
  TGI: 3.38 µM
[22]
  GI50: 1.69 µM
  LC50 (concentration killing 50% of cells): 5.62 µM
  TGI: 3.09 µM
[23]
  growth at 100 µM: 0%
[24]
  GI50: 4.36 µM
  TGI: 17 µM
[24]; [32]
  CC50: 45.7 µM
[25]
  GI50: 6.45 µM
  TGI: 20.4 µM
[25]; [32]
  CC50: 47.9 µM
[26]
  GI50: 1.82 µM
  LC50 (concentration killing 50% of cells): 67.6 µM
  TGI: 3.54 µM
[27]
  GI50: 1.58 µM
  LC50: 5.62 µM
  TGI: 2.95 µM
[28]
  GI50: 2.13 µM
  TGI: 5.12 µM
[28]; [32]
  CC50: 22.4 µM
[29]
  GI50: 1.73 µM
  TGI: 2.31 µM
[29]; [32]
  CC50: 6.45 µM
[30]
  GI50: 1.69 µM
  LC50: 6.91 µM
  TGI: 3.38 µM
[31]
  GI50: 2.39 µM
  LC50 (concentration causing 50% cell kill): 55 µM
  TGI: 5.01 µM
